# In ChEMBL document CHEMBL3507680, “University of Dundee, Gates Library screen for HepG2 cell viability”:
# Test: Human HepG2 cell viability assay in 384 well format
# Type: toxicity, cell-based
# Design: dose 125 nL, time 70.5 hour; concentration not given beside the values
# Conditions: HepG2 cells, read-out: Inhibition
row,SMILES,cytotoxicity at 70.5 h
1,c1cnnc(N2CCCC(NCc3nc(-c4cccs4)no3)C2)c1 (stereo not drawn),-6.61%
2,NS(=O)(=O)CCNC(=O)C1(c2ccccc2)CC1,-1.21%
3,Cc1cc(Cl)ccc1S(=O)(=O)NCC(C)N1CCN(C)CC1 (stereo not drawn),-0.894%
4,Cc1ccc(-c2ccc(C(=O)NCC(N)=O)c(F)c2)cc1,1.46%
5,Cc1nc(CN2CCN(c3ncnc4ccccc34)CC2)no1,4.67%
6,COc1ncccc1C(=O)NC1(c2cccc(F)c2)CCOCC1,22.6%
7,CN(C)c1cc(C(=O)NC2(c3cccc(F)c3)CCOCC2)ccn1,-1.02%
8,Cc1cc(CNC(=O)NCc2ccccc2N2CCOCC2)no1,1.76%
9,CC(C)(C)OC(=O)N1CCCc2ccc(NCc3cc[nH]c3)cc21,-9.07%
10,CC(C)C1CN(C(=O)c2ccccc2)CCS1 (stereo not drawn),2.34%
11,CC(C)C1CN(C(=O)c2ccncc2)CCS1 (stereo not drawn),-1.14%
12,CC(CNS(=O)(=O)c1cccc(Cl)c1)N1CCN(C)CC1 (stereo not drawn),-5.03%
13,Cc1ccc(S(=O)(=O)NCCCN2CCC(O)CC2)c(F)c1,18.4%
14,CN(Cc1ccc(F)cc1)C(=O)CN1CCCCC1Cn1cncn1 (stereo not drawn),-3.07%
15,CC(C)c1cccc(S(=O)(=O)NCCCN2CCC(O)CC2)c1,3.11%
16,CN1CC(C(=O)N2CCC(Oc3ccccc3Cl)CC2)CC1=O (stereo not drawn),-1.46%
17,Cc1cn2c(n1)CCC(NC(=O)CCOc1ccccc1F)C2 (stereo not drawn),-5.57%
18,Cc1cc(C)n(C2CN(CC(=O)N(C)Cc3cnn(C)c3)C2)n1,-7%
19,O=C(c1ccoc1)N1CCN(Cc2ccccc2F)CC1,-3.32%
20,Cc1ccc(CNC(=O)NC(C)CN2CCOCC2)s1 (stereo not drawn),-6.15%
21,COC(=O)N1CCN(Cc2csc(-c3ncccn3)n2)CC1,-5.37%
22,O=C(COc1cccc2c1CCC2=O)NCC(F)(F)F,-2.4%
23,N#CCc1ccc(NC(=O)CNc2ccc(Br)cc2F)cc1,-7.86%
24,Cc1ccc(C)c(NC(=O)c2cc(S(=O)(=O)N3CCSCC3)c[nH]2)c1,7.14%

row,SMILES,cytotoxicity at 70.5 h
1,Cc1nnc(NC(=O)c2cc(S(=O)(=O)N3CCSCC3)c[nH]2)s1,-0.0324%
2,CC(CN1CCOCC1)NC(=O)NCc1cccs1 (stereo not drawn),-7.69%
3,CCc1nnc2n1CCN(C(=O)C(OC)c1ccccc1)C2 (stereo not drawn),-8.62%
4,c1cnc(N2CCC(NCc3cnc(C4CCC4)s3)CC2)nc1,-11.5%
5,c1ccc(CN2CCC(NCCc3ccc4c(c3)CCO4)CC2)nc1,0.552%
6,COCCOc1cc(C(=O)N2CC(C)c3ccccc32)ccn1 (stereo not drawn),-11.1%
7,COc1cccc(NC(C(N)=O)c2ccc(Br)cc2)c1 (stereo not drawn),-10.7%
8,NC(=O)CN1CCC(NC(=O)N2CCCC2c2ccsc2)CC1 (stereo not drawn),-6.14%
9,CN(C(=O)CN1CCCc2cc(F)cc(F)c21)c1ccccc1,-16.8%
10,CC(C)N(Cc1ccccc1)Cc1csc(-c2ncccn2)n1,-10.1%
11,Cc1nnc2n1CCN(C(=O)CN1C(=O)CCOc3ccccc31)C2,-7.17%
12,Cc1noc(C)c1CN(C)C(=O)c1ccc2c(c1O)OC(C)(C)C2,1.38%
13,N#Cc1ccc(NCc2cccc(COC3CCOCC3)c2)nc1,-2.1%
14,CC(C)Cc1nc(COc2ccc(N(C)C(N)=O)cc2)no1,-2.35%
15,Cn1cccc1C(=O)NS(=O)(=O)c1cnn(-c2ccccc2F)c1,11.6%
16,COC(C)c1cccc(NC(=O)N(CCC#N)Cc2ccccn2)c1 (stereo not drawn),-6.49%
17,CCc1cnc(CN2C(=O)CC3(CCSC3)C2=O)o1 (stereo not drawn),11.4%
18,CC(C)c1nc(S(=O)(=O)N2CCSc3ccccc32)c[nH]1,-3.59%
19,O=C(C1CCCOC1)N1CCCCc2ccccc21 (stereo not drawn),-12.1%
20,CCN1CCN(C(=O)c2c[nH]c(C(C)C)n2)c2ccccc21,2.09%
21,CC(C)c1nnc(CN(C)C(c2ccccc2)c2ccc(F)cc2)o1 (stereo not drawn),-2.6%
22,O=C(C1CCCOC1)N1CCCc2ccccc21 (stereo not drawn),-4.78%
23,CC(C)c1nnc(CN(C)C(c2ccc(F)cc2)c2cccnc2)o1 (stereo not drawn),-2.85%
24,CCN1CCN(S(=O)(=O)c2cn(C(C)C)cn2)c2ccccc21,-1.25%

row,SMILES,cytotoxicity at 70.5 h
1,Cc1cc(CNc2ccc3nc(C)sc3c2)no1,-4.46%
2,COCCN(Cc1ccccc1)Cc1csc(-c2ncccn2)n1,-4.86%
3,CC(C)N(CC(N)=O)Cc1csc(-c2ncccn2)n1,-2.81%
4,CN(C)C(=O)c1csc(-c2ccoc2)n1,27.9%
5,OCC1(CNC2CCc3cc4c(cc32)OCCO4)CC1 (stereo not drawn),22.1%
6,Cc1sc2nc(SC(C)c3nc(C(C)(C)C)no3)nc(N)c2c1C (stereo not drawn),21.9%
7,CCN(C(=O)CN1CCCC1c1cccs1)c1ccccc1C (stereo not drawn),30.3%
8,CN(Cc1nccn1C)C(=O)C1COCC(=O)N1Cc1ccccc1 (stereo not drawn),30.1%
9,CC(C)Cn1ncc2cc(C(=O)N(C)Cc3cccc(O)c3)cnc21,11.7%
10,CC(C)N(C(=O)c1csc(-c2ccoc2)n1)C1CCOCC1,-10.2%
11,Cc1n[nH]c(C2CN(Cc3ncc(C(C)C)o3)CCO2)n1 (stereo not drawn),0.362%
12,CC(C)c1cccc(-n2cc(O)c(C(=O)NCCC(=O)N(C)C)n2)c1,-6.63%
13,O=C1CCCc2[nH]c(=O)c(C(=O)N(CC3CCCCC3)C3CC3)cc21,-7.98%
14,CN(CC1CCC1)C(=O)c1ccc(-c2nc(C3CC3)n[nH]2)cc1,-8.67%
15,CN(CC(O)C1CC1)C(=O)c1ccc(-c2nc(C3CC3)n[nH]2)cc1 (stereo not drawn),-7.71%
16,CS(=O)(=O)c1cccc(S(=O)(=O)NCCCN2CCNC(=O)C2)c1,-5.37%
17,CC(=O)N(CCc1nc(-c2cc(C(N)=O)co2)cs1)C(C)C,2.32%
18,CC(C)c1nccn1CCC(=O)N1CCCC1c1cccn1C (stereo not drawn),-3.96%
19,Cc1c(C(=O)N2CCC(C(O)c3ccc(Cl)cc3)CC2)cnn1C (stereo not drawn),-3.74%
20,O=S(=O)(N1CCCCC1)N1CCOC2(CCCC2)C1,-0.763%
21,COCc1nc(CNc2cccc(-c3csc(C)n3)c2)cs1,-0.82%
22,COc1cccc(S(=O)(=O)CCNC(C)Cn2cccn2)c1 (stereo not drawn),4.6%
23,CC(=O)N(CCc1nc(-c2cc(C(N)=O)oc2C)cs1)C(C)C,-8.28%
24,CCN(C(=O)CN1CCCC1c1cc(C)no1)c1ccccc1C (stereo not drawn),-6.07%

row,SMILES,cytotoxicity at 70.5 h
1,OCCNC1CCc2cc3c(cc21)OCCO3 (stereo not drawn),9.99%
2,CN(c1nc(CSc2nnc(Cn3cncn3)o2)cs1)C1CC1,0.758%
3,CC(NC(=O)Nc1nccs1)C(=O)NC1CCCC1 (stereo not drawn),0.896%
4,CC(NC(=O)Nc1nncs1)C(=O)NC1CCCC1 (stereo not drawn),-8.75%
5,CC(=O)NCCC(=O)NCc1ccc(Br)cc1Cl,-0.899%
6,Cc1cc(NC(=O)CN(c2ccccc2)C(C)C)on1,0.413%
7,N#Cc1ccnc(SCC2CN=C(N3CCOCC3)S2)c1 (stereo not drawn),2.81%
8,CC(C)c1nc(CSc2nnc(Cn3cncn3)o2)cs1,0.92%
9,CSc1nc(C2CC2)nc(C)c1C(=O)NCc1ccco1,16.1%
10,Cc1nc(CNC(=O)NC2CCN(c3cccc(Cl)c3)C2)no1 (stereo not drawn),-1.4%
11,O=C(NCCc1ccccn1)N1CCSC2(CCCCC2)C1,1.93%
12,Cn1nccc1CNC(=O)NC1CCN(c2ncccc2Cl)C1 (stereo not drawn),-0.776%
13,Cc1[nH]ncc1C(C)NCc1ccc(F)cc1 (stereo not drawn),-1.27%
14,COc1ccc(S(=O)(=O)NC2(CC(N)=O)CCC2)cc1,20.9%
15,Cc1nc(CNC(=O)NC2CCN(c3ncccc3Cl)C2)oc1C (stereo not drawn),14.8%
16,Cc1nc(O)ccc1C(=O)N1CCCC1c1nc(-c2ccccc2)n[nH]1 (stereo not drawn),0.447%
17,CN1CCN(Cc2cccc(NCc3cc[nH]n3)c2)CC1,-5.29%
18,c1ccc(NCc2ccsc2)c(Cn2cncn2)c1,-15.1%
19,CC(C)(C)c1ncc(CNc2ccccc2Cn2cncn2)s1,-8.54%
20,CC(CO)(NC(=O)Nc1nnc(C2CC2)s1)C1CCCCC1 (stereo not drawn),-11.1%
21,Cn1ccc(C(=O)NCc2ccccc2Cn2ccnc2)cc1=O,-8.24%
22,CCC(CC)c1nnc(NC(=O)N2CCCC(NC(C)=O)C2)s1 (stereo not drawn),-5.89%
23,COc1cc(OC)c(CNC(=O)NCC(=O)N2CCCC2)c(OC)c1,-6.53%
24,CC(C)NC(=O)C1CCN(C(C)C(=O)N2CCc3sccc3C2)CC1 (stereo not drawn),-2.44%

row,SMILES,cytotoxicity at 70.5 h
1,CC(C)N(Cc1cnn(C)c1)C(=O)c1ccnc(N(C)C)c1,-7.21%
2,CNC(=O)CN1CCC(NC(=O)CC(C)CCc2ccccc2)CC1 (stereo not drawn),12.1%
3,CCOc1ccc(C(=O)N(Cc2cnn(C)c2)C(C)C)cc1,-1.86%
4,Cn1ccc(C(=O)NCc2ccc(Cn3ccnc3)cc2)cc1=O,-1.16%
5,CCN(CC)CCCN1CCC(NC(=O)OC(C)(C)C)CC1,-4.36%
6,CCN1CCN(CCNc2nc3ccc(C)cc3c(=O)n2C)CC1,11.8%
7,CCOc1ccnc(N2CCN(C(=O)CCc3cnn(C)c3)CC2)n1,-4.83%
8,NC(=O)C1CCCN1Cc1ccccc1NC(=O)CC(F)(F)F (stereo not drawn),-3.67%
9,Cc1ccc(C(=O)NS(C)(=O)=O)cc1S(C)(=O)=O,3.46%
10,CCCC(C)NC(=O)CCN1C(=O)CCc2cc(F)ccc21 (stereo not drawn),2.38%
11,c1cncc(-c2nc3c(c(NCC4(c5ccncc5)CC4)n2)CCC3)c1,-0.48%
12,CCN(CC)C(=O)Nc1ccc(C(=O)N(C)C)c(C)c1,2.13%
13,CCOC(C)c1noc(CN(C)C(=O)c2cc3ccccn3c2)n1 (stereo not drawn),-3.99%
14,CCOC(C)c1noc(CN(C)C(=O)c2ccncc2)n1 (stereo not drawn),0.244%
15,CC(C)c1nsc(NC2CCOC3(CCCC3)C2)n1 (stereo not drawn),-0.215%
16,Cc1nsc(NC2CCOC3(CCCCC3)C2)n1 (stereo not drawn),-8.47%
17,COCCCOc1ccc(C(=O)N(Cc2cnn(C)c2)C(C)C)cn1,-7.46%
18,CN1CCCC(N(C)S(=O)(=O)c2cccc3ncccc23)C1 (stereo not drawn),-1.85%
19,COCC(C)NC(=O)CCCn1cnc2ccccc2c1=O (stereo not drawn),-5.09%
20,O=c1cc(CNCc2ccc3c(c2)OCO3)nc2ccccn12,-6.34%
21,O=C(CCC1CCCO1)NCCCC(=O)Nc1ccc(Cl)cc1 (stereo not drawn),-12%
22,O=C(CCn1c(=O)oc2ccccc21)NCC(O)c1ccc(F)c(F)c1 (stereo not drawn),-4.98%
